From patent US5866787A, “Transgenic plants co-expressing a functional human 2-5A system” (Cleveland Clinic Foundation, priority 1995, dated 1999)

Experiments:
[1] = tested on: murine 2-5A-dependent RNase (truncated recombinant clone ZB1 and murine L cell enzyme); experiment: UV covalent crosslinking of 32P-2-5A probe with unlabeled oligonucleotide competitors, murine enzyme; type: binding; details: for competition with 2-5A probe binding: competitor 100 nM, recombinant 74 kDa protein produced in wheat germ extract
Procedure: FIG. 2A is a specific affinity of truncated murine 2-5A-dependent RNase for 2-5A. UV covalent crosslinking of the ^32 P-2-5A probe (lanes 1-7) to protein is performed after translation reactions in wheat germ extract (5 μl) with murine 2-5A-dependent RNase mRNA (from clone ZB1) (lanes 1-3) or without added RNA (lane 4) or in extract of interferon treated mouse L cells (100 μg of protein) (lanes 5-7). Reactions are without added competitor (lanes 1, 4, and 5) or in the presence of either timer core. (A2'p)2 A, (100 nM) (lanes 2 and 6) or timer 2-5A, p3 (A2'p)2 A (100 nM) (lanes 3 and 7).
Autoradiograms of the dried SDS/10% polyacrylamide gels are shown. Concentrations of the oligonucleotide competitors are indicated. […].
(§1) The synthesis of the 2-5A probe, p(A2'p)2 (br^8 A2'p)2 A[32P]Cp, and its crosslinking to 2-5A-dependent RNase is performed exactly as described. See Nolan-Sorden, N. L. et al., Anal. Biochem., 184:298-304 (1990). Briefly, the 2-5A probe, about 0.7 to 2.5 nM at […], is incubated for about one hour on ice with cell extract prepared as described, Silverman, R. H. and Krause, D., I.R.L. Press, Oxford, England, pp. 149-193 (1987), in the absence or presence of unlabeled oligonucleotide competitors. Covalent crosslinking is done under a uv lamp (308 nm) for one hour on ice and the proteins are separated on SDS/10% polyacrylamide gels. Filter assays for 2-5A binding activity using the 2-5A probe for about one hour on ice, as described in Knight, M. et al., Nature, 288:189-192 (1980).

[2] = tested on: recombinant human 2-5A-dependent RNase; experiment: UV covalent crosslinking of 2-5A probe with competitors, human enzyme; type: binding; details: competitor 100 nM; recombinant human enzyme produced in wheat germ extract
Procedure: FIG. 5A is specific affinity of recombinant human 2-5A-dependent RNase for 2-5A. Crosslinking of the 2-5A probe (lanes 1-7) to protein is performed after translation reaction in wheat germ extract (5 λl) with human 2-5A-dependent RNase mRNA (lanes 1-3) or without added RNA (lane 4) or in extract of human interferon a treated (1000 units per ml for 16 h) human HeLa cells (350 μg of protein) (lanes 5-7). Reactions were without added competitor (lanes 1, 4, and 5) or in the presence of either timer core, (A2'p)2 A, (100 nM) (lanes 2 and 6) or timer 2-5A, p3 (A2'p)2 A (100 nM) (lanes 3 and 7). Incubations with ^35 S-methionine are shown in lanes 8 to 12. Lane 8 is with wheat germ extract and human 2-5A-dependent RNase mRNA. Reticulocyte lysate preadsorbed to 2-5A-cellulose is incubated with human 2-5A-dependent RNase mRNA in the absence (lane 9) or presence (lane 10) of cycloheximide, or in the absence of added mRNA (lane 11). […] The positions and relative molecular masses (in kDa) of the marker proteins are indicated.
The synthesis of the 2-5A probe, p(A2'p)2 (br^8 A2'p)2 A[32P]Cp, and its crosslinking to 2-5A-dependent RNase is performed exactly as described. See Nolan-Sorden, N. L. et al., Anal. Biochem., 184:298-304 (1990). […]

[3] = tested on: poly(U); experiment: Ribonuclease assay with 2-5A-cellulose, poly(U) substrate; type: biochemical; details: enzyme translated in reticulocyte lysate, bound to 2-5A-cellulose, 30° C.
Procedure: (§2) FIG. 5B is reticulocyte lysate pretreated to remove endogenous 2-5A-dependent RNase and is incubated in the absence of added mRNA (.box-solid.), in the presence of human 2-5A-dependent RNase mRNA without inhibitor (.smallcircle., .quadrature.) or in the presence of both 2-5A-dependent RNase mRNA and cycloheximide (50 μg per ml (.circle-solid.). See Example I. Subsequently, the recombinant 2-5A-dependent RNase (or controls) is adsorbed to 2-5A-cellulose and ribonuclease assays are performed after extensive washing of the matrix to reduce general nuclease activity. Radiolabeled substrate RNA was either poly(U) (.smallcircle., .circle-solid., .box-solid.) or poly(C) (.quadrature.).
(§3) The ribonuclease assay with 2-5A-cellulose is performed, as described by Silverman, R. H., Anal. Biochem., 144:450-460 (1985). Briefly, lysates are adsorbed to about […] of 2-5A-cellulose on ice for about two hours. The matrix is then washed three times by centrifuging and resuspending in buffer A. See Silverman, R. H., Anal. Biochem., 144:450-460 (1985). The matrix is then incubated with poly(U)-[^32 P]Cp or poly(C)-[^32 P]Cp (both at about 16 μM in nucleotide equivalents) at about 30° C. and the levels of acid-precipitable radioactive RNA are determined by filtration on glass-fiber filters.

[4] = tested on: poly(C); experiment: Ribonuclease assay with 2-5A-cellulose, poly(C) substrate; type: biochemical; details: after one hour of incubation
Procedure: as §2, §3

[5] = tested on: 2-5A probe; experiment: 2-5A binding activity of nested 3'-deletion clones (filter binding and uv crosslinking); details: produced in wheat germ extract
Excerpt: See Example and Knight et al. 1980). The positions of the P-loop motifs and the lengths of the translation products are indicated. Clone ZB1 encodes for amino acids designated as 1-656 in Table 2, except for the last 5 amino acid residues which are Lys, Pro, Leu, Ser, and Gly. Clone ZB2 encodes for amino acids designated as 1-619 in Table 2. Clone ZB3 encodes for amino acids designated as 1-515 in Table 2. Clone ZB5 encodes for amino acids designated as 1-474 in Table 2. Clone ZB9 encodes for amino acids designated as 1-403 in Table 2. Clone ZB10 encodes for amino acids designated as 1-365 in Table 2. Clone ZB13 encodes for amino acids designated as 1-294 in Table 2. Clone ZB14 encodes for amino acids designated as […] in Table 2. Clone ZB15 encodes for amino acids designated as 1-218 in Table 2.
The set of nested 3'-deletions of the truncated murine 2-5A-dependent RNase cDNA, ZB1, is generated with exonuclease III/S1 nuclease digestion followed by filling-in with Klenow DNA Polymerase using the "Erase-A-Base" system (Promega).
as §1

[6] = 2-5A probe 2.4 nM, both recombinant and naturally occurring protein

Q: What does the source list for (A2'p)2 A?
A: concentration required to prevent 2-5A probe binding [1, 6]: 10 µM; competition with 2-5A probe binding [1]: fails to interfere with binding; fold higher concentration than trimer 2-5A required to prevent probe binding ([1]; relative to p3 (A2'p)2 A at about 20 nM): 500 fold; competition with 2-5A probe binding [2]: not prevented

Q: What does the source list for p3 (A2'p)2 A?
A: concentration that prevents the 2-5A probe from binding [1, 6]: about 20 nM; competition with 2-5A probe binding [1]: completely prevents probe binding; competition with 2-5A probe binding [2]: effectively competes

Q: For p3 A2'pA, which “concentration required to prevent 2-5A probe binding” value [1, 6] is on record?
A: The value was greater than 10 µM.

Q: p3 I2'pA2'pA was tested. Which “concentration required to prevent 2-5A probe binding” value [1, 6] did it give?
A: The value was “about 1.0 μM”.

B1: recombinant human 2-5A-dependent RNase: full-length human 2-5A-dependent RNase (clone ZC5) produced in vitro in reticulocyte lysate (protein)
chain: MESRDHNNPQEGPTSSSGRRAAVEDNHLLIKAVQNEDVDLVQQLLEGGANVNFQEEEGGWTPLHNAVQMSREDIVELLLRHGADPVLRKKNGATLFILAAIAGSVKLLKLFLSKGADVNECDFYGFTAFMEAAVYGKVKALKFLYKRGANVNLRRKTKEDQERLRKGGATALMDAAEKGHVEVLKILLDEMGADVNACDNMGRNALIHALLSSDDSDVEAITHLLLDHGADVNVRGERGKTPLILAVEKKHLGLVQRLLEQEHIEINDTDSDGKTALLLAVELKLKKIAELLCKRGASTDCGDLVMTARRNYDHSLVKVLLSHGAKEDFHPPAEDWKPQSSHWGAALKDLHRIYRPMIGKLKFFIDEKYKIADTSEGGIYLGFYEKQEVAVKTFCEGSPRAQREVSCLQSSRENSHLVTFYGSESHRGHLFVCVTLCEQTLEACLDVHRGEDVENEEDEFARNVLSSIFKAVQELHLSCGYTHQDLQPQNILIDSKKAAHLADFDKSIKWAGDPQEVKRDLEDLGRLVLYVVKKGSISFEDLKAQSNEEVVQLSPDEETKDLIHRLFHPGEHVRDCLSDLLGHPFFWTWESRYRTLRNVGNESDIKTRKSESEILRLLQPGPSEHSKSFDKWTTKINECVMKKMNKFYEKRGNFYQNTVGDLLKFIRNLGEHIDEEKHKKMKLKIGDPSLYFQKTFPDLVIYVYTKLQNTEYRKHFPQTHSPNKPQCDGAGGASGLASPGC
Q: Which results are given for B1?
A: half-life of poly(U) degradation [3]: about 10 minutes; poly(C) degraded [4]: 20%

B2: ZB15: murine 2-5A-dependent RNase deletion clone, amino acids 1 to 218, both P-loop motifs deleted (protein, UniProt Q05921 1-218, looked up, fragment)
chain: METPDYNTPQGGTPSAGSQRTVVEDDSSLIKAVQKGDVVRVQQLLEKGADANACEDTWGWTPLHNAVQAGRVDIVNLLLSHGADPHRRKKNGATPFIIAGIQGDVKLLEILLSCGADVNECDENGFTAFMEAAERGNAEALRFLFAKGANVNLRRQTTKDKRRLKQGGATALMSAAEKGHLEVLRILLNDMKAEVDARDNMGRNALIRTLLNWDCENV
Q: With B2 as the molecule, how does the “2-5A binding activity, % of clone ZB1” value [5] read?
A: Its value is “completely lacking”.

B3: ZB13: murine 2-5A-dependent RNase deletion clone, amino acids 1 to 294 (protein, UniProt Q05921 1-294, looked up, fragment)
chain: METPDYNTPQGGTPSAGSQRTVVEDDSSLIKAVQKGDVVRVQQLLEKGADANACEDTWGWTPLHNAVQAGRVDIVNLLLSHGADPHRRKKNGATPFIIAGIQGDVKLLEILLSCGADVNECDENGFTAFMEAAERGNAEALRFLFAKGANVNLRRQTTKDKRRLKQGGATALMSAAEKGHLEVLRILLNDMKAEVDARDNMGRNALIRTLLNWDCENVEEITSILIQHGADVNVRGERGKTPLIAAVERKHTGLVQMLLSREGINIDARDNEGKTALLIAVDKQLKEIVQLLLE
Q: How did the “2-5A binding activity, % of clone ZB1” value [5] turn out when B3 was run?
A: The value was “about 38.3%”.

B4: ZB14: murine 2-5A-dependent RNase deletion clone, amino acids 1 to 265, one P-loop motif deleted (protein, UniProt Q05921 1-265, looked up, fragment)
chain: METPDYNTPQGGTPSAGSQRTVVEDDSSLIKAVQKGDVVRVQQLLEKGADANACEDTWGWTPLHNAVQAGRVDIVNLLLSHGADPHRRKKNGATPFIIAGIQGDVKLLEILLSCGADVNECDENGFTAFMEAAERGNAEALRFLFAKGANVNLRRQTTKDKRRLKQGGATALMSAAEKGHLEVLRILLNDMKAEVDARDNMGRNALIRTLLNWDCENVEEITSILIQHGADVNVRGERGKTPLIAAVERKHTGLVQMLLSREGIN
Q: Which “2-5A binding activity, % of clone ZB1” value [5] does the source give for B4 here?
A: The value was 1.9%.

B5: ZB11: murine 2-5A-dependent RNase deletion clone, amino acid residues 1 to 342 (protein, UniProt Q05921 1-342, looked up, fragment)
chain: METPDYNTPQGGTPSAGSQRTVVEDDSSLIKAVQKGDVVRVQQLLEKGADANACEDTWGWTPLHNAVQAGRVDIVNLLLSHGADPHRRKKNGATPFIIAGIQGDVKLLEILLSCGADVNECDENGFTAFMEAAERGNAEALRFLFAKGANVNLRRQTTKDKRRLKQGGATALMSAAEKGHLEVLRILLNDMKAEVDARDNMGRNALIRTLLNWDCENVEEITSILIQHGADVNVRGERGKTPLIAAVERKHTGLVQMLLSREGINIDARDNEGKTALLIAVDKQLKEIVQLLLEKGADKCDDLVWIARRNHDYHLVKLLLPYVANPDTDPPAGDWSPHSSRW
Q: How did the “loss of 2-5A binding activity as compared to clone ZB1” value [5] turn out when B5 was run?
A: The value was “about 26%”.
